Converted amounts (≈) assume the structure as drawn. Where two headings read alike, the source gives them in different places.
How the values were obtained:
p21 promoter = test: p21 induction in vivo method C.6.c (reporter tumour fluorescence in nude mice); details: 20-40 mpk daily during 6 days, orally or intraveinally, ranked inactive, weaker, identical or better than R306465
Experimental: The last method is an in vivo method wherein mice are used for screening the pharmaceutical activity of a compound. The above described stably transformed tumour cells can be administered to mice in an amount sufficient to effect production of a tumour. After the tumour cells had sufficient time to form a tumour, a potentially active compound can be administered to the animals and the effect of said compound on the tumour cells is evaluated by measuring the expression of the reporter gene. Incubation with pharmaceutical active compounds will result in an increase of reporter gene expression compared to the control levels (see example C.6.c.)
A selected clone was injected subcutaneous (10^7 cells/200 μl) into the flank of nude mice and a calliper measurable tumour was obtained after 12 days. From day 12 on, animals were dosed, orally or intraveinally, daily during 6 days with solvent and 20-40 mpk compound (4-10 animals each). Tumours were evaluated for fluorescence by the in-house developed Automated Whole Body Imaging System (Fluorescent stereomicroscope type Olympus® SZX12 equipped with a GFP filter and coupled to a CCD camera type JAI® CV-M90 controlled by a software package based on the IMAQ Vision Software from National Instruments®). As reference, compound R306465 (WO03/76422) was used.

[1] = test system: A2780 ovarian carcinoma cells; test: Antiproliferative activity on A2780 cells (MTT); type: cell-based; details: Homo sapiens, 96 h, four days of incubation, read-out: Cellular activity pIC50 C.2 (converted)
Experimental: Cellular activity of the compounds of formula (I) was determined on A2780 tumour cells using a colorimetric assay for cell toxicity or survival (Mosmann Tim, Journal of Immunological Methods 65: 55-63, 1983)(see example C.2).
All compounds tested were dissolved in DMSO and further dilutions were made in culture medium. Final DMSO concentrations never exceeded 0.1% (v/v) in cell proliferation assays. Controls contained A2780 cells and DMSO without compound and blanks contained DMSO but no cells. MTT was dissolved at 5 mg/ml in PBS. A glycine buffer comprised of 0.1 M glycine and 0.1 M NaCl buffered to pH 10.5 with NaOH (1 N) was prepared (all reagents were from Merck).
The human A2780 ovarian carcinoma cells (a kind gift from Dr. T. C. Hamilton [Fox Chase Cancer Centre, Pennsylvania, USA]) were cultured in RPMI 1640 medium supplemented with 2 mM L-glutamine, 50 μg/ml gentamicin and 10% fetal calf serum. Cells were routinely kept as monolayer cultures at 37° C. in a humidified 5% CO2 atmosphere. Cells were passaged once a week using a trypsin/EDTA solution at a split ratio of 1:40. All media and supplements were obtained from Life Technologies. Cells were free of mycoplasma contamination as determined using the Gen-Probe Mycoplasma Tissue Culture kit (supplier: BioMérieux).
Cells were seeded in NUNC™ 96-well culture plates (Supplier: Life Technologies) and allowed to adhere to the plastic overnight. Densities used for plating were 1500 cells per well in a total volume of 200 μl medium. After cell adhesion to the plates, medium was changed and drugs and/or solvents were added to a final volume of 200 μl. Following four days of incubation, medium was replaced by 200 μl fresh medium and cell density and viability was assessed using an MTT-based assay. To each well, 25 μl MTT solution was added and the cells were further incubated for 2 hours at 37° C. The medium was then carefully aspirated and the blue MTT-formazan product was solubilized by addition of 25 μl glycine buffer followed by 100 μl of DMSO. […] Within an experiment, the results for each experimental condition are the mean of 3 replicate wells. For initial screening purposes, compounds were tested at a single fixed concentration of 10^−6 M. For active compounds, the experiments were repeated to establish full concentration-response curves. For each experiment, controls (containing no drug) and a blank incubation (containing no cells or drugs) were run in parallel. The blank value was subtracted from all control and sample values. For each sample, the mean value for cell growth (in absorbance units) was expressed as a percentage of the mean value for cell growth of the control. […] Herein the effects of test compounds are expressed as pIC50 (the negative log value of the IC50-value)(see Table F-2).

[2] = not given; remark: listed apart in the source
[3] = Solubility at pH 2.3 (chemiluminescent nitrogen detector); type: physicochemical; details: pH 2.3, aqueous buffer; read-out: Solubility C.3.c. pH = 2.3
Description: In a third method the solubility of a compound at different pH's can be measured with the use of a Chemiluminescent Nitrogen Detector (see example C.3.c).
The solubility of a compound, at pH 2.3, can also be measured with the use of a chemiluminescent nitrogen detector (see Table F-2).

[4] = target: histone deacetylase (HeLa nuclear extracts); test: In vitro assay for inhibition of histone deacetylase with fluorescent-labelled substrate (Fluor de Lys); type: biochemical
Description: The in vitro assay for inhibition of histone deacetylase (see example C.1) measures the inhibition of HDAC enzymatic activity obtained with the compounds of formula (I).
The HDAC Fluorescent Activity Assay/Drug Discovery Kit of Biomol (cat. No: AK-500-0001) was used. The HDAC Fluorescent Activity Assay is based on the Fluor de Lys (Fluorogenic Histone deAcetylase Lysyl) substrate and developer combination. The Fluor de Lys substrate, comprises an acetylated lysine side chain. Deacetylation of the substrate sensitizes the substrate so that, in the second step, treatment with the Fluor de Lys developer produces a fluorophore.
HeLa nuclear extracts (supplier: Biomol) were incubated at 60 μg/ml with 75 μM of substrate. The Fluor de Lys substrate was added in a buffer containing 25 mM Tris, 137 mM NaCl, 2.7 mM KCl and 1 mM MgCl2.6H2O at pH 7.4. After 30 min, 1 volume of the developer was added. The fluorophore was excited with 355 nm light and the emitted light (450 nm) was be detected on a fluorometric plate reader.
For each experiment, controls (containing HeLa nuclear extract and buffer), a blank incubation (containing buffer but no HeLa nuclear extract) and samples (containing compound dissolved in DMSO and further diluted in buffer and HeLa nuclear extract) were run in parallel. In first instance, compounds were tested at a concentration of 10^−5M. […] All sample were tested 4 times. In each test the blank value was subtracted from both the control and the sample values. The control sample represented 100% of substrate deactylation. For each sample the fluorescence was expressed as a percentage of the mean value of the controls. […] Herein the effects of test compounds are expressed as pIC50 (the negative log value of the IC50-value) (see Table F-2).

[5] = Kinetic solubility in aqueous media C.3.a (nephelometer); type: physicochemical; details: aqueous buffer, kinetic from dmso stock; phosphate citrate buffer pH 7.4, turbidity; read-out: Kinetic solubility score (C.3.a)
Experimental: The solubility of a compound measures the ability of a compound to stay in solution. In a first method the ability of a compound to stay in aqueous solution upon dilution (see example C.3.a) is measured. DMSO-stock solutions are diluted with a single aqueous buffer solvent in 3 consecutive steps. For every dilution turbidity is measured with a nephelometer.
In the first dilution step, 10 μl of a concentrated stock-solution of the active compound, solubilized in DMSO (5 mM), was added to 100 μl phosphate citrate buffer pH 7.4 and mixed. In the second dilution step, an aliquot (20 μl) of the first dilution step was further dispensed in 100 μl phosphate citrate buffer pH 7.4 and mixed. Finally, in the third dilution step, a sample (20 μl) of the second dilution step was further diluted in 100 μl phosphate citrate buffer pH 7.4 and mixed. All dilutions were performed in 96-well plates. Immediately after the last dilution step the turbidity of the three consecutive dilution steps were measured with a nephelometer. Dilution was done in triplicate for each compound to exclude occasional errors. Based on the turbidity measurements a ranking is performed into 3 classes. Compounds with high solubility obtained a score of 3 and for this compounds the first dilution is clear. Compounds with medium solubility obtained a score of 2. […]

[6] = Metabolic stability with rat hepatocytes cell culture C.5.b; type: in vitro ADME; details: male, Sprague Dowley, rat hepatocyte cell cultures, read-out: in vitro half-life
Description: Metabolism of drugs means that a lipid-soluble xenobiotic or endobiotic compound is enzymatically transformed into (a) polar, water-soluble, and excretable metabolite(s). The major organ for drug metabolism is the liver. […] However, some metabolites may have enhanced activity or toxic effects. Thus drug metabolism may include both “detoxication” and “toxication” processes. One of the major enzyme systems that determine the organism's capability of dealing with drugs and chemicals is represented by the cytochrome P450 monooxygenases, which are NADPH dependent enzymes. Metabolic stability of compounds can be determined in vitro with the use of subcellular human tissue (see example C.5.a.). Here metabolic stability of the compounds is expressed as % of drug metabolised after 15 minutes incubation of these compounds with microsomes. Quantitation of the compounds was determined by LC-MS analysis. Metabolic stability of compounds can also be determined by calculating the half live of compounds in rat hepatocyte cells (see example C.5.b.).
Rat hepatocytes were isolated from male Sprague Dowley rats. The compounds were dissolved to a 5 mM stock solution in 100% DMSO and incubated at a final concentration of 5 μM for 0, 15, 30, 60 and 120 min with rat hepatocyte cell cultures (0.5 million viable cells/0.5 ml) using 24-well plates.
Samples were prepared for LC-MS by addition of two volumes of DMSO. The samples were thoroughly shaken and subsequently centrifuged at 900 g for 10 min (room temperature). All experiments were performed in triplicate. Of the resulting supernatant 50 μl was analysed by LC-MS.
For LC-MS, elution of samples was performed on a Hypersil BDS C18 column (50×4.6 mm, 5 μm, Thermohypersil, UK). […]
Total injection volume of samples was 50 μL. […] The mass spectrometer was operated in positive ion mode in SIM adjusted to the mass of M+H with a scan width of 1 Da for quantification purposes. […] The metabolic stability of compounds in rat hepatocytes was expressed as in vitro half-lives. […]

Row | IC50 [1] [nM] | melting point [2] [°C] | solubility [3] [µg/mL] | Enzymatic activity pIC50 C.1 [4] | half-life at 5 μM [6] [min] | Compound | further results
1 |  |  |  |  |  | COc1cc(N)c(Cl)cc1C(=O)NC1CCN(CCCOc2ccc(F)cc2)CC1OC (centres unmarked) [Cisapride] | % metabolism (human, 15 min, 5 μM): 45%
2 | 20 | 197 | 2500 (≈ 6.32 mM) | 8.4 |  | Cn1nc(CNCC2CCN(c3ncc(C(=O)NO)cn3)CC2)c2ccccc21 [Compound 1] | tumour fluorescence ranked against R306465 (p21 promoter): better than R306465
3 | 251 | 206 | 2100 (≈ 5.3 mM) | 8.1 |  | Cn1nnc2ccc(CNCC3CCN(c4ncc(C(=O)NO)cn4)CC3)cc21 [Compound 2] | solubility kinetic [5]: > 455 µM
4 |  |  |  |  |  | CCCO [propanol] | % metabolism (15 min incubation with microsomes, compound 5 μM): 25%
5 | 79.4 |  | 2200 (≈ 5.77 mM) | 9.4 | 30 to 55 | O=C(NO)c1cnc(N2CCC(CNCc3n[nH]c4ccccc34)CC2)nc1 [Compound 22] | 
6 |  |  |  |  | 8 | O=C(NO)c1cnc(N2CCN(S(=O)(=O)c3ccc4ccccc4c3)CC2)nc1 [Compound R306465, reference compound] | 

— patent US7834011B2, “Heterocyclylalkyl derivatives as novel inhibitors of histone deacetylase” (Janssen Pharmaceutica N.V., priority 2006, dated 2010)
